# Laboratory results from EP0144441A1, “BLOOD PRESSURE-CONTROLLING AGENT” (HAYASHIBARA BIOCHEMICAL LABORATORIES, INC., priority 1983, dated 1984).
# Where two headings read alike, the source gives them in different places.
# Columns and labels:
# Acute toxicity = conditions: rat, in vivo, male Wistar rats, suspended in 5 % gum arabic, observed 7 days, method of Van der Warden
# Description: Eight male Wistar rats (weighing about 150 g) per group were used. Platonin suspended in 5 % gum arabic was administered intraperitonealy, or orally using a gastric tube. […] The LD50 value was calculated by the method of Van der Warden.
# [1] = test system: normal rats (Wistar-Kyoto); assay: Effect on blood pressure in normal rats (also heart rate, body weight); assay type: in vivo
# Description: Male Wistar-Kyoto rats eight weeks old (weighing about 190 g) were used in groups of 5 animals. Platonin was orally administered at a dose of 1 µg/kg three times a week for 8 weeks. A physiological saline alone was administered to a control group in the same manner as above. During the administration period, blood pressure, heart rate and body weight were measured at timed intervals. Blood pressure, systolic, was bloodlessly measured in the caudal artery using a rat blood pressure manometer (made by Narco Biosystems Co.), and heart rate using a polygraph (made by Nippon Kohden Kabushiki Kaisha).
# [2] = test system: spontaneously hypertensive rats; assay: Effect on spontaneously hypertensive rats (blood pressure, heart rate, body weight); assay type: in vivo; conditions: for antihypertensive effect: separate experiment (not illustrated)
# Description: Male spontaneously hypertensive rats (hereinafter referred to as SHR, weighing about 190 g) eight weeks old were used in groups of 5 animals. Platonin was orally adminstered at a dose of 1 µg/kg three times a week for 13 weeks. A physiological saline alone was adminstered to a control group in the same manner as above. During the administration period, blood pressure, heart rate and body weight were measured at timed intervals.
# Blood pressure, systolic, was bloodlessly measured in the caudal artery using a rat blood pressure manometer (made by Narco Biosystems Co.), and heart rate using a polygraph (made by Nippon Kohden Kabushiki Kaisha).
# [3] = normal rats, in comparison with the control group
structure (smiles),measurement,setting,value
CCCCCCCN1C(C)=CS\C1=C/C=C(/C=C/c1scc(C)[n+]1CCCCCCC)c1scc(C)[n+]1CCCCCCC,LD50 at 168 h,"Acute toxicity; ip, intraperitoneal, read-out: intraperitoneal LD50 value",54 mg/kg
same,LD50 at 168 h,"Acute toxicity; oral by gastric tube, read-out: oral LD50 value",1500 mg/kg
same,Effect on blood pressure in normal rats,"[1]; male Wistar-Kyoto rats, oral, 1 µg/kg three times a week for 8 weeks, Fig. 3",no influence on blood pressure
same,Effect on blood pressure in normal rats,"[1]; normal rats, dose range of 1 to 100 µg/kg",no change in blood pressure
same,body weight,[1]; [3],no significant changes
same,heart rate,[1]; [3],no significant changes
same,acute hypotensive effect,"[2]; SHR, also at a higher dose, time for the antihypertensive effect to be revealed was the same",any acute hypotensive effect was not found
same,Body weight change,"[2]; SHR, oral, 1 µg/kg three times a week, Fig. 2",no influence on body weight gain
same,Effect on heart rate,"[2]; SHR, oral, 1 µg/kg three times a week, any time point during administration, compared with control group",any significant change in heart rate was not observed
same,Body weight change,"[2]; SHR, oral, 1 to 100 ug/kg three times a week (not illustrated)",no effect on body weight
same,antihypertensive effect,"[2]; SHR, after about 4 weeks of administration",significant decrease in blood pressure
same,antihypertensive effect,"[2]; SHR, till the 3rd week of administration",no effect at all
same,Effect on blood pressure,"[2]; male SHR, oral, 1 ug/kg three times a week for 13 weeks, systolic, caudal artery, each measurement time point after 5 weeks, Fig. 1",remarkable blood pressure fall
